# Experimental data published in patent US4772599A, “Benzodiazepine derivatives and their preparation and use” (A/S Ferrosan, priority 1986, dated 1988).
# System: benzodiazepine receptors
# Assay: In vivo displacement of 3H-flunitrazepam from brain benzodiazepine receptors
# Settings: mice (female, NMR), test substance i.p. 15 min before 3H-FNM i.v.; dose inhibiting 50% of specific 3H-FNM binding in forebrain
# From the text: The pharmaceutical properties of the compounds of the invention can be illustrated by determining their capability for displacing radioactivity labelled flunitrazepam from benzodiazepine receptors.
# The displacement activity of the compounds of the invention may be found by determining the ED50 value. The ED50 value represents the dose (mg/kg) of a test substance which causes the specific binding of flunitrazepam to benzodiazepine receptors in a living brain to be reduced to 50% of the control value.
# Such an in vivo test is carried out as follow:
# Principle. Twenty minutes after a dose of ^3 H-flunitrazepam (^3 H-FNM) (200 μCi/kg, i.v.) the amount of specific ^3 H-FNM binding to brain benzodiazepine receptors has reached its maximal value.
# Test procedure. Suspensions of test substances (2 mg/ml) are prepared in 5% Duphasol-X (TM Duphar, caster oil-ethylene oxide derivative for emulsifying and solubilizing oil and other water-insoluble substances) by sonification for 10 min using a Branson B15 microtip ultrasonifier (setting 7). Groups of three mice (female, NMR, 18-22 grams) are injected with the test substance at 100 mg/kg intraperitoneally. Fifteen minutes after test substance administration the mice are challenged with 4 μCi intravenously of ^3 H-FNM (70-90 Ci/mole) in 200 μl physiological saline. Twenty minutes after ^3 H-FNM administration mice are sacrificed by decapitation, the forebrains rapidly excised (within 30 sec) and homogenized in 12 ml of icecold 25 mM KH2 PO4, pH 7.1, using an Ultra-Turrax™ homogenizer fitted with an N 10 shaft. Two aliquots of 1 ml are immediately filtered through Whatman GF/C glassfibre filters and washed with 2×5 ml of the above mentioned buffer. The amounts of radioactivity on the filters are determined by conventional scintillation counting. One group of untreated mice serves as control. One to three mice are injected with 25 μg/kg clonazepam i.p. 30 minutes before ^3 H-FNM to determine the amount of non-specific ^3 H-FNM binding, which should be between 8-15% of total binding. When doses of 100 mg/kg inhibit more than 50% of specific ^3 H-flunitrazepam binding, test substances are administered in doses, which are factors of 3.16 times lower than 100 mg/kg. The ED50 for a test substance is defined as that dose which inhibits 50% of specific ^3 H-FNM binding. Specific binding is the amount of binding in controls minus the amount of binding in clonazepam-treated mice.
# Results. The ED50 value is determined from dose response curves. If only one dose of test substance is administered the ED50 value is calculated as follows, provided that the inhibition of specific binding is within the range of 25-75%: [formula] where Co is specific binding in controls of Cx is specific binding in mice treated with test substance.
row,SMILES,In vivo displacement activity: ED50 [mg/kg]
1,COC(=O)c1cccc2c1C(=O)N(C)Cc1c(-c3nc(C4CC4)no3)ncn1-2,0.4
2,CCOC(=O)c1cccc2c1C(=O)N(C)Cc1c(-c3nc(C4CC4)no3)ncn1-2,1.4
3,CCc1noc(-c2cccc3c2C(=O)N(C)Cc2c(-c4nc(CC)no4)ncn2-3)n1,1.3
4,Cc1nc(-c2ncn3c2CN(C)C(=O)c2c(-c4nc(-c5ccccc5)no4)cccc2-3)no1,1.7
5,CCOC(=O)c1cccc2c1C(=O)N(C)Cc1c(-c3noc(C)n3)ncn1-2,1.5
